Measurements published in article PMC12797002, “Hydrophobic residues in the α‐synuclein NAC domain drive seed‐competent fibril formation and are targeted by peptide inhibitors” (The Febs Journal, 2025).

How the values were obtained:
[1] = tested on: αSyn; details: cited from earlier work
Excerpt: Building on our findings that the presence of residues 8–11 in NAC peptides, corresponding to αSyn 68–71, is necessary for efficient nucleation and aggregation, we investigated whether disrupting this hydrophobic region could inhibit full‐length αSyn aggregation. Truncating these residues abolished aggregation, and peptides containing them (e.g., NAC16, NAC11) aggregated rapidly (Fig. 1). To test whether targeting this site could suppress aggregation, we selected a previously validated inhibitor peptide based on the KISVRV sequence. This segment mimics the 70–75 region of αSyn, a hydrop ...

[2] = tested on: HEK293T αSyn (A53T) CFP/YFP biosensor cells; assay: Cell seeding assay (CFP/YFP inclusions, FRET flow cytometry); format: cell-based; details: 1 μM total or insoluble fraction, TurboFect
Excerpt: HEK293T αSyn (A53T) CFP/YFP biosensor cells (HEK293T parental line, RRID:CVCL_0063) were kindly provided by Dr. Marc Diamond from the University of Texas Southwestern Medical Center (Dallas, TX, USA). The cells were not further authenticated but were routinely tested and confirmed to be mycoplasma‐free using PCR‐based assays. The cells were maintained in complete growth media consisting of 88% Dulbecco's modified Eagle's growth medium (Lonza, Walkersville, MD, USA, Cat. # 12‐604F), supplemented with 10% (v/v) fetal bovine serum (Thermo Fisher Scientific Inc., Cat. # A5256701), 10 mM HEPES (Serana Europe GmbH, Brandenburg, Germany; Cat # BSL‐001‐100ML), 1% (v/v) GlutaMAX™ Supplement (Thermo Fisher Scientific Inc., Cat. # 35050061), and 1% (v/v) Penicillin–Streptomycin Solution (Thermo Fisher Scientific Inc., Cat. # 15140130). Cells were maintained at 37 °C in a humidified incubator with 5% CO2/atmospheric air. […]
Cells were imaged using a high‐content imaging system (Cell Voyager 7000S; Yokogawa, Tokyo, Japan) with a 20× objective. CFP/YFP inclusions of αSyn (A53T) were detected using a 488 nm laser line (Ex = 460–490 nm, Em = 500–550 nm), while Hoechst‐33 342‐stained nuclei were detected using the 405 nm laser line (Ex = 360–400 nm, Em = 410–480 nm). […]

[3] = tested on: recombinant αSyn; assay: Effect of inhibitor peptides on αSyn aggregation (ThT, TEM, dot blot, Coomassie gel); format: biochemical, human
Experimental: For monitoring the effect of inhibitor peptides on αSyn aggregation, recombinant αSyn was incubated with PD, PL, PB, or scrambled peptides at a 1 : 2 molar ratio (100–150 μM αSyn:200–300 μM inhibitor) in the presence of 50 μM ThT. The incubation was performed at 37 °C with constant agitation at 850 rpm in a Turbo Thermo Shaker (TMS‐200; Allsheng, Hangzhou, China). The formation of amyloid fibrils was monitored by measuring ThT fluorescence over 72 h, as described previously.
To fractionate aggregated samples (recombinant αSyn or NAC peptides), 20% of the aggregation mixture was set aside as the ‘total fraction’. The remaining sample was centrifuged at room temperature at 65 000 g for 1 h. The supernatant was collected as the ‘soluble fraction’ and transferred to a fresh tube. The pellet was resuspended in 80 μL of 1× PBS (pH 7.2) and centrifuged at 65 000 g for 1 h. After removing the supernatant, the pellet was resuspended in 8 μL of 1× PBS (pH 7.2), yielding a 10× concentrated ‘insoluble fraction’.
Samples were dropped on glow‐discharged carbon‐coated copper grids and negatively stained with 2% uranyl acetate. Electron microscopy was performed on a Tecnai G2 F20 microscope (FEI Technologies, Hillsboro, OR, USA) with an Eagle 4K CCD camera (FEI Technologies) or a CM100 TWIN Transmission Electron Microscope (Philips, Amsterdam, Netherlands) equipped with a side‐mounted Veleta Camera (Olympus, Tokyo, Japan) and processed in the iTEM software suite (Olympus). After bringing the images to 2048 × 2048 pixels, the pixel size at the specimen level was 1.14 nm. Approximately 20 micrographs of each specimen were recorded and evaluated.
The samples were mixed with 2× Laemmli buffer [62.5 mM Tris/HCl (pH 6.8), 25% (w/v) glycerol, 2% SDS, and 0.01% Bromophenol Blue, supplemented with 5% (v/v) 2‐mercaptoethanol] and boiled at 95 °C for 5 min. The samples were then subjected to electrophoresis using Mini‐PROTEAN TGX 4–20% Precast gels (Bio‐Rad, Hercules, CA, USA, Cat. # 4561095) in Tris/glycine/SDS running buffer (Bio‐Rad). […]

[4] = Self-aggregation of inhibitor peptides alone (ThT, SEM); format: physicochemical; details: Fig. S8
Experimental: NAC peptides stored at −80 °C were thawed on ice and centrifuged at 12 100 g for 45 s. A reaction mixture (40 μL) was prepared on ice containing 100 μM NAC peptide, either alone or in combination with inhibitor peptides at a 1 : 2 molar ratio, along with 15 μM ThT (Sigma‐Aldrich, Burlington, MA, USA; Cat. # T3516‐5G) in 1× PBS (pH 7.2). This mixture was then dispensed into a clear‐bottom, black 384‐well plate (Revvity, Waltham, MA, USA), and the plate was sealed with a TopSealA‐PLUS (Revvity) to prevent evaporation.
The aggregation kinetics was monitored on an EnSpire Multimode Plate Reader (Revvity) at 37 °C with a constant agitation of 1000 rpm. To prevent condensation in the assay plate, the upper heater temperature in the plate reader was set to 2 °C higher than the lower heater temperature. ThT (Ex: 460–490 nm, Em: 500–550 nm) fluorescence readings were recorded every 5–10 min for 48–72 h. The aggregation lag time was determined by fitting a Boltzmann sigmoidal equation to the fluorescence data in OriginPro 2024 (OriginLab Corporation, Northampton, MA, USA).
NAC peptides aggregated in the absence or presence of inhibitor peptides, as described in the section Aggregation Kinetics, were collected and pooled into Eppendorf tubes. Approximately 2 μL of each sample was drop‐cast onto a silicon wafer and air‐dried at room temperature. […]

KISVRV
effect on preformed αSyn oligomers [1]: dissolve preformed oligomers | effect on αSyn fibril formation [1]: inhibit αSyn fibril formation

KISVRVRRRRRR [PB]
reduction of seed competency of αSyn fibrils, ranking ([2]; 72 h, Fig. 5C,D): most effective

KISVRVRRRRRR [PD]
inhibition of αSyn aggregation (ThT kinetics) ([3]; αSyn : peptide 1 : 2 molar ratio (100–150 μM : 200–300 μM), 50 μM ThT, 37 °C, 850 rpm, 72 h, n = 3): highly effective in inhibiting αSyn aggregation | CFP/YFP inclusions in cells transduced with αSyn fibrils formed with inhibitor ([2]; αSyn : peptide 1 : 2 for 72 h, n = 3): reduced inclusions

VSRKIVRRRRR [PS]
self-aggregation (ThT kinetics of peptide alone) [4]: no signs of self‐aggregation | final ThT reading normalized to control (amyloid fibrils formed) ([3]; αSyn : peptide 1 : 2, end of aggregation assay, n = 3 (PS n = 2)): increase in αSyn aggregation | αSyn fibrils by TEM ([3]; αSyn aggregated with peptide at 1 : 2): fibril morphology was unaffected
